Reference: patent US20240166671A1, “Novel Stannic Protoporfin Compositions, Methods of Making, and Uses Thereof” (Renibus Therapeutics, Inc., priority 2022, published 2024)

Experiments:
[1] = system: cultured human tubule cells; assay: Cell viability of cultured human tubule cells exposed to SnPP; type: cell-based; details: for % Viable Cells: n = 6, control 100%
Procedure: The composition of Example 1 and the Comparative Example were exposed to incubated cultured human tubule cells with different concentrations of SnPP.

[2] = system: HO-1; assay: HO-1/GAPDH mRNA (cortex) after IV FeS + SnPP, biomarker for oxidative stress; type: in vivo; details: combined with iron sucrose; HO-1 as indicator of oxidative stress
Procedure: The SnPP composition of Example 1 and the Comparative Example (1 micromole) were combined with iron sucrose (1 mg) to assess biomarkers for oxidative stress.

C=CC1=C(C)C2=Cc3c(C=C)c(C)c4[n]3[Sn]([Cl])([Cl])[n]3c(c(C)c(CCC(=O)O)c3=CC3=NC(=C4)C(C)=C3CCC(=O)O)=CC1=N2 [Example 1, Stannic protoporfin] was tested, and the “% Viable Cells” value ([1]; SnPP 10 nmol/mL) was 97.9%, the “% Viable Cells” value ([1]; SnPP 25 nmol/mL) was 95.3% and the “% Viable Cells” value ([1]; SnPP 75 nmol/mL) was 88.9%. For the same compound, the cell killing ([1]; highest concentration of SnPP (75 nmol/mL)) was 11%, the “cell death relative to comparative example” value ([1]; human tubule cells) was “less cell death” and the “HO-1 induction relative to comparative example” value [2] was “lower HO-1 induction”.
